Reference: patent US9034856B2, “17-(1′propenyl)-17-3′-oxidoestra-4-en-3-one derivative, use thereof, and medicament containing said derivative” (Bayer Intellectual Property GmbH, priority 2007, dated 2015)
Where two headings read alike, the source gives them in different places.

Experiments:
[1] = target: progesterone receptor (Homo sapiens (Human), UniProt P06401); experiment: Progesterone receptor binding test; details: for Progesterone receptor (PR) Competition factor: CF 1 = affinity of progesterone, CF > 1 lower affinity; for IC50: displacement of 3H-progesterone, cytosol from PR-expressing Hi5 insect cells; for CF PR/CF MR: ratio of competition factors CF(PR) and CF(MR)
Chain of progesterone receptor (P06401 whole entry, species assumed): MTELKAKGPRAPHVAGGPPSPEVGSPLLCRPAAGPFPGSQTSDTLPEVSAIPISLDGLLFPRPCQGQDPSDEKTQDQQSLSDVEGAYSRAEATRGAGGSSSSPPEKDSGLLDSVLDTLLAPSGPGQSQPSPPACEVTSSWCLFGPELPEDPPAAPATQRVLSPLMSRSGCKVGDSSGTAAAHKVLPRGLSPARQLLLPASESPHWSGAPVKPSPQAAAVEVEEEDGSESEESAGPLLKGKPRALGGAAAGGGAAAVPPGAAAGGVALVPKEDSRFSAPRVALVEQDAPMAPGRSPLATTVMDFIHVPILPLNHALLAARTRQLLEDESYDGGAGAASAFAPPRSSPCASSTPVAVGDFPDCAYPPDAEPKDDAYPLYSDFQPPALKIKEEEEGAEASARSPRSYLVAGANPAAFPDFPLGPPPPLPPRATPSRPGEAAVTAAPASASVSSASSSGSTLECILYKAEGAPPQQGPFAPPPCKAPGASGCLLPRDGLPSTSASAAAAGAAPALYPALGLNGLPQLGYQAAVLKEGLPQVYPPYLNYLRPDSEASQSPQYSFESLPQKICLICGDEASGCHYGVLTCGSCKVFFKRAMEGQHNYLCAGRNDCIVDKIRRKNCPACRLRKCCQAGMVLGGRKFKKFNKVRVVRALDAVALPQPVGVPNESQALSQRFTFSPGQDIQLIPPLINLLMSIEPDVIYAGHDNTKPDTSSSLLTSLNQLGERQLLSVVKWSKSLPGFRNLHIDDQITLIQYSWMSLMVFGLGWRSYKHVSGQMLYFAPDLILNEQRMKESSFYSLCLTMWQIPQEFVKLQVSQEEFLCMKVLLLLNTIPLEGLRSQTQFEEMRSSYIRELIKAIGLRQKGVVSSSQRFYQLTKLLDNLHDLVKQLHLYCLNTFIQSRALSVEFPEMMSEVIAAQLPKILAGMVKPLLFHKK
Protocol: 1. Progesterone Receptor Binding Test:
Using cytosol from progesterone receptor-expressing insect cells (Hi5), competitive binding to the progesterone receptor was determined from the ability to displace ^3H-progesterone as reference substance from the receptor.

[2] = target: T1, mineralocorticoid receptor (Homo sapiens (Human), UniProt P08235); experiment: Mineralocorticoid receptor binding test; details: reference 3H-aldosterone, Hi5 cytosol
T1 sequence (P08235 whole entry): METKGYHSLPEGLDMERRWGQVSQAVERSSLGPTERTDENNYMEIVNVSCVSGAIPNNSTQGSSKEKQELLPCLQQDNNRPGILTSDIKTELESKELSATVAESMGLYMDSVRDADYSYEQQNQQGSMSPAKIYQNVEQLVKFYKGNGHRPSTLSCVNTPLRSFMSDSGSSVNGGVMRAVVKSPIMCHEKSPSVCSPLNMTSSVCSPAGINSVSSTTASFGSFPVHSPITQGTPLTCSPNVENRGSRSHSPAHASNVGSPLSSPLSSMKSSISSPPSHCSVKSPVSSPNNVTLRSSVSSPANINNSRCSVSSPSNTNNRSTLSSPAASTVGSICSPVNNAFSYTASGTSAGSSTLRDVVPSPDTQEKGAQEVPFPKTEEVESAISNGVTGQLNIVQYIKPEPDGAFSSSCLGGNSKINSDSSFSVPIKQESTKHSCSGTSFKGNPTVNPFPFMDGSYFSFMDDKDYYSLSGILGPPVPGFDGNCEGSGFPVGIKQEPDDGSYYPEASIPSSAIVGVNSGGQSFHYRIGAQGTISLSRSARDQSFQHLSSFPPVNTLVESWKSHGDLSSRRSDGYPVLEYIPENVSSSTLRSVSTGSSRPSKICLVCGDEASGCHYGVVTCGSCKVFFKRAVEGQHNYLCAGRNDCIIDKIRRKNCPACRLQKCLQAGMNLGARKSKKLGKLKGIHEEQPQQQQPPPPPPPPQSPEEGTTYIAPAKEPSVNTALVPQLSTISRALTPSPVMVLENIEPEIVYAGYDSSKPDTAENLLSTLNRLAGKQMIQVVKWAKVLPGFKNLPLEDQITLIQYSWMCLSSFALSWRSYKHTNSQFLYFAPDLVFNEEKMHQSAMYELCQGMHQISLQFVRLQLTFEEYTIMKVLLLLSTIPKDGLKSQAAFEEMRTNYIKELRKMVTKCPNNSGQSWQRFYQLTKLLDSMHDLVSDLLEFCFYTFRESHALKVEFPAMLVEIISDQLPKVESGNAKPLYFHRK
Description: 2. Mineralocorticoid Receptor Binding Test:

[3] = target: T1, mineralocorticoid receptor; experiment: Antimineralocorticoid action by transactivation test (MDCK reporter cells); format: cell-based; details: for IC50: read-out: Mineralocorticoid receptor Antagonism IC50; for Emax: read-out: Mineralocorticoid receptor Antagonism efficacy; for Mineralocorticoid receptor Antagonism (result in words): cell spans IC50 and efficacy
Protocol: 5. Determination of Antimineralocorticoid Action by Means of Transactivation Tests:
The antimineralocorticoid activity of the test substances was determined as for the transactivation tests described above.
The following modifications were undertaken: In this case reporter cell lines were used (MDCK cells) that express the human mineralocorticoid receptor, and transiently contain a reporter construct that contains luciferase under the control of a steroid hormone-responsive promoter.

[4] = target: T2, androgen receptor (Homo sapiens (Human), UniProt P10275); experiment: Androgenic/antiandrogenic action by transactivation test (PC3 reporter cells); format: cell-based; details: for IC50: 0.05 nM R1881, read-out: Androgen receptor Antagonism IC50; for EC50: read-out: Androgen receptor Agonism EC50
T2 sequence (P10275 whole entry, species assumed): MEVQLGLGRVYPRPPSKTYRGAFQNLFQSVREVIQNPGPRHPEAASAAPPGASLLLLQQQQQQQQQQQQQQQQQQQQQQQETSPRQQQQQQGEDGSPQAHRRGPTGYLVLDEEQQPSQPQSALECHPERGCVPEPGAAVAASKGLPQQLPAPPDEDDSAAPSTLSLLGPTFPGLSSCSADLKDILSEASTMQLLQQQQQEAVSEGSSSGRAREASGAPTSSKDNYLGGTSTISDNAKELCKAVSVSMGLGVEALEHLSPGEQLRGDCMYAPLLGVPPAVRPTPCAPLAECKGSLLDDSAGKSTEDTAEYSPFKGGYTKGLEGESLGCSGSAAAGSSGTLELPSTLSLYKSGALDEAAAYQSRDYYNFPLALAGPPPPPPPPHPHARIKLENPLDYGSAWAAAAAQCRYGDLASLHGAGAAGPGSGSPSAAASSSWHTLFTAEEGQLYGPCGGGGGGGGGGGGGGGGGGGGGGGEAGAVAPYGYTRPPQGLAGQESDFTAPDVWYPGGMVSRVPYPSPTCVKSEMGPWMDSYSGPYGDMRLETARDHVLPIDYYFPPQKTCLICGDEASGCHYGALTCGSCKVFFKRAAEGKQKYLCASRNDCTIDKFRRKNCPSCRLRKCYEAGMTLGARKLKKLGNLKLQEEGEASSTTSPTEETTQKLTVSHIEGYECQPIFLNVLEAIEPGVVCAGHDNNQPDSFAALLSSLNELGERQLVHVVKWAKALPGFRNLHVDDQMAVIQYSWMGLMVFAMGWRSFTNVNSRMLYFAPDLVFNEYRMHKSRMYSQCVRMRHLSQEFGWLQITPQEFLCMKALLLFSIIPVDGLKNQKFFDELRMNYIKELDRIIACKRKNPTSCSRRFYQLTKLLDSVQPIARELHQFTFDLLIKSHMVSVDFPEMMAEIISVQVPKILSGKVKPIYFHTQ
Protocol: 6. Determination of Androgenic/Antiandrogenic Action by Means of Transactivation Tests:
The androgenic/antiandrogenic action of the test substances was determined as for the transactivation tests described above.
The following modifications were made: In this case reporter cell lines were used (PC3 cells) that express the androgen receptor, and a reporter construct that contains luciferase under the control of a steroid hormone-responsive promoter.
For determination of the antiandrogenic efficacy, 0.05 nM R1881 was added to the cells, in order to achieve almost maximum stimulation of the reporter gene.

[5] = target: fusion protein from the PR-ligand-binding domain and a Gal4-transactivation domain (Homo sapiens, UniProt P06401); experiment: Progestational action by transactivation test (CHO K1 reporter cells); format: cell-based; details: CHO K1 luciferase reporter, 16 hours incubation; for EC50: read-out: Progesterone receptor Agonism EC50; for Emax: read-out: Progesterone receptor Agonism efficacy
Chain of fusion protein from the PR-ligand-binding domain and a Gal4-transactivation domain (P06401 679-913): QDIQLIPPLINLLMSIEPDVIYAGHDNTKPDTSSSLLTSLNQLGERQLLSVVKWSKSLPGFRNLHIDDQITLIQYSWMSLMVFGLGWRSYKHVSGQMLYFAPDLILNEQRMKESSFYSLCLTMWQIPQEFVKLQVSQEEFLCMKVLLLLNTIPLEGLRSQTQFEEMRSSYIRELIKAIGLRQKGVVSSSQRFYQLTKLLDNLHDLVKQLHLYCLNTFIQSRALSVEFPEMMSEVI
Protocol: 4. Determination of Progestational Action by Means of Transactivation Tests:
The test compounds were added eight hours later, and the cells were incubated with the compounds for 16 hours. The tests were carried out in triplicate. At the end of incubation the medium containing the effector was removed and replaced with lysis buffer. After luciferase assay substrate (Promega, #E1501) had been added, the 96-well plates were then put in a microplate luminometer (Pherastar, BMG Labtech), and the luminescence was measured. The IC50 values were evaluated using software for calculating dose-effect relations.

[6] = target: T2, androgen receptor; experiment: Androgen receptor binding test; details: reference 3H-testosterone, Hi5 cytosol; for IC50: read-out: Androgen receptor IC50
Protocol: Androgen Receptor Binding Test:
The test was carried out as in 1., with the following modifications: cytosol from androgen receptor-expressing insect cells (Hi5) was used, and the reference substance was ^3H-testosterone.

[7] = MDCK reporter cells, 1 nM aldosterone
[8] = 0.05 nM R1881, read-out: Androgen receptor Antagonism efficacy
[9] = read-out: Androgen receptor Agonism efficacy

SMILES | Progesterone receptor (PR) Competition factor [1] | IC50 [1] | Mineralocorticoid receptor (MR) Competition factor [2] | IC50 [3, 7] | Emax [3, 7] | Emax [4, 8] | Emax [4, 9] | EC50 [5] | Emax [5] | CF PR/CF MR [1] | IC50 [4] | EC50 [4] | Androgen receptor Competition factor [6] | Emax ([3]; MDCK) | IC50 [6] | Mineralocorticoid receptor Antagonism (result in words) [3, 7]
C[C@]12CC[C@H]3[C@@H](CCC4=CC(=O)CC[C@@H]43)[C@@H]1CC[C@@]21C=CCO1 (stereo in doubt) [Example 1, 17α-(1′-Propenyl)-17β-3′-oxidoestra-4-en-3-one] | 0.46 | 3 nM | 2.6 | 31 nM | 83% | 29% | 62.7% | – | – | – | – | – | – | – | – | –
C[C@]12CC[C@H]3[C@@H](C=CC4=CC(=O)CC[C@@H]43)[C@@H]1CC[C@@]21C=CCO1 (stereo in doubt) [Example 2, 17α-(1′-Propenyl)-17β-3′-oxidoestra-4,6-dien-3-one] | 2.29 | 55.5 nM | 8.9 | 92 nM | 136% | 34.4% | 31.9% | 2.9 nM | 36.4% | – | – | – | – | – | – | –
C[C@]12CC[C@H]3[C@@H](CCC4=CC(=O)CC[C@@H]43)[C@@H]1CC1(CC1)[C@@]21C=CCO1 (stereo in doubt) [Example 6, 16,16-Ethylene-17α-(1′-propenyl)-17β-3′-oxidoestra-4-en-3-one] | 3.41 | 110 nM | 22.9 | 1000 nM | 65.1% | 70.1% | 49.7% | – | – | – | – | – | – | – | – | –
CC[C@]12CC[C@H]3[C@@H](CCC4=CC(=O)CC[C@@H]43)[C@@H]1CC[C@@]21C=CCO1 (stereo in doubt) [Example 7, 18-Methyl-17α-(1′-propenyl)-17β-3′-oxidoestra-4-en-3-one] | 0.19 | 5.3 nM | 1.6 | 5 nM | 87.8% | 25.4% | 78.3% | – | – | 0.12 | 160 nM | 3.7 nM | 0.5 | – | – | –
CC[C@]12CC[C@H]3[C@@H](C=CC4=CC(=O)CC[C@@H]43)[C@@H]1CC[C@@]21C=CCO1 (stereo in doubt) [Example 8, 18-Methyl-17α-(1′-propenyl)-17β-3′-oxidoestra-4,6-dien-3-one] | 1.78 | – | 1.2 | 66 nM | 112% | 5% | 62% | 1.1 nM | 12.3% | – | – | – | – | – | – | –
C[C@]12CCC(=O)C=C1[C@@H]1C[C@@H]1[C@H]1[C@@H]3[C@@H]4C[C@@H]4[C@@]4(CCC(=O)O4)[C@@]3(C)CC[C@@H]12 [A, 6β,7β-15β,16β-dimethylene-3-oxo-17-pregn-4-ene-21,17β-carbolactone, reference compound] | 2.7 | – | 0.5 | – | – | – | – | – | 72.2% | – | – | – | – | 64.1% | – | –
C[C@@H]1CC2=CC(=O)CC[C@@H]2[C@H]2CC[C@@]3(C)[C@@H](CC[C@@]34C=CCO4)[C@@H]21 [Example 3, 7α-Methyl-17α-(1′-propenyl)-17β-3′-oxidoestra-4-en-3-one] | 2.41 | 62 nM | 3.2 | 17 nM | 112% | 5% | 80.2% | 3.7 nM | 61.6% | – | – | – | – | – | – | –
CC[C@@H]1CC2=CC(=O)CC[C@@H]2[C@H]2CC[C@@]3(C)[C@@H](CC[C@@]34C=CCO4)[C@H]12 [Example 4, 7α-Ethyl-17α-(1′-propenyl)-17β-3′-oxidoestra-4-en-3-one] | 11.75 | 130 nM | 4.1 | 310 nM | 82.2% | 5% | 62.3% | 67 nM | 65.1% | 2.87 | 1000 nM | 7.3 nM | 2.9 | – | 64 nM | –
C=C[C@@H]1CC2=CC(=O)CC[C@@H]2[C@H]2CC[C@@]3(C)[C@@H](CC[C@@]34C=CCO4)[C@@H]21 [Example 5, 17α-(1′-Propenyl)-7α-vinyl-17β-3′-oxidoestra-4-en-3-one] | 2.46 | – | 2.6 | 57 nM | 121% | 5% | 86.8% | 1.2 nM | 21.9% | 0.95 | 1000 nM | 3.7 nM | 2.2 | – | 53 nM | –
CC[C@]12CC[C@H]3[C@@H]([C@H](C)CC4=CC(=O)CC[C@@H]43)[C@@H]1CC[C@@]21C=CCO1 [Example 9, 7α,18-Dimethyl-17α-(1′-propenyl)-17β-3′-oxidoestra-4-en-3-one] | 3.26 | 77 nM | 1.6 | 38 nM | 105% | 5% | 77.9% | 7.1 nM | 55.9% | 2.04 | 1000 nM | 3 nM | 3.0 | – | 81 nM | –
CC[C@@H]1CC2=CC(=O)CC[C@@H]2[C@H]2CC[C@@]3(CC)[C@@H](CC[C@@]34C=CCO4)[C@H]12 [Example 10, 7α-Ethyl-18-methyl-17α-(1′-propenyl)-17β-3′-oxidoestra-4-en-3-one] | 7.03 | 170 nM | 1.1 | 850 nM | 39.2% | 5% | 70.4% | 780 nM | 26.4% | 6.39 | 1000 nM | 9.4 nM | 4.1 | – | 110 nM | –
C=C[C@@H]1CC2=CC(=O)CC[C@@H]2[C@H]2CC[C@@]3(CC)[C@@H](CC[C@@]34C=CCO4)[C@@H]21 [Example 11, 7α-Vinyl-18-methyl-17α-(1′-propenyl)-17β-3′-oxidoestra-4-en-3-one] | 6.24 | 170 nM | 1.3 | – | – | 5% | 88.8% | 100 nM | 29.5% | 4.80 | 1000 nM | 5.3 nM | 4.7 | – | 1300 nM | Partial agonist
CC[C@]12CC[C@H]3[C@@H]([C@H](C4CC4)CC4=CC(=O)CC[C@@H]43)[C@@H]1CC[C@@]21C=CCO1 [Example 12, 7α-Cyclopropyl-18-methyl-17α-(1′-propenyl)-17β-3′-oxidoestra-4-en-3-one] | 8.51 | 210 nM | 2.0 | – | – | 5% | 70.1% | 55 nM | 30.9% | – | – | – | – | – | – | Partial agonist
CC[C@]12CC[C@H]3[C@@H](C[C@@H](CO)C4=CC(=O)CC[C@@H]43)[C@@H]1CC[C@@]21C=CCO1 [Example 13, 6β-Hydroxymethylene-18-methyl-17α-(1′-propenyl)-17β-3′-oxidoestra-4-en-3-one] | 88.59 | 2100 nM | 2.2 | 110 nM | 98.8% | 48.1% | 5% | 1000 nM | 5% | 40.27 | 140 nM | 1000 nM | 1000.0 | – | 1000 nM | –
